# Test results published in publication PMC11555231 (Nature Communications, 2024).
# Bridge positions count the residues as written; N and C are the ends. Square brackets hold non-standard residues; d marks the D form. Peptide text beside a SMILES is read from it.
# Test system: human neutrophils
# Test: Time-lapse imaging and NET quantification (NETosis)
# Format: cell-based
# Conditions: 50 µM peptide, 5 µM Ca-Ionophore, 12 h
# Protocol: Peripheral venous blood was isolated from consenting healthy adult volunteers in heparin tubes as previously described. Briefly, blood samples were on Histopaque 1119 (Sigma-Aldrich) and then centrifuged for 20 min at 800 × g. The plasma was collected and centrifuged for a second time for 20 min at 800 × g. The neutrophil layer was collected and washed in Hyclone Hank’s Balanced Salt Solution (HBSS) -Ca, -Mg, -Phenol red (GE Healthcare) supplemented with 10 mM HEPES (Invitrogen) 0.1% FBS and further purified with a discontinuous Percoll (GE Healthcare) gradient consisting of layers with densities of 85, 80, 75, 70 and 65% and centrifuged for 20 min at 800 × g. Neutrophil-enriched layers were then collected and washed, and neutrophil purity was assessed using flow cytometry.
# About 5 × 10^4 human neutrophils were seeded in a black 96-well plate (PerkinElmer) in HyClone HBSS +Ca, +Mg, - Phenol red (GE Healthcare) containing 10 mM HEPES (Invitrogen). Cells were pre-incubated with the corresponding peptide for 60 min prior to the start of the experiment. DNA of live cells was stained with 4 µg/mL Hoechst (membrane permeable; Thermo Scientific) and DNA from dead cells with 0.2 µM Sytox-green (membrane impermeable; Invitrogen). Cells were stimulated with 100 nM PMA, 5 µM Ca-Ionophore or 0.1 mg/mL cholesterol crystals at the start of the microscope acquisition. Plates stimulated with cholesterol crystals were centrifuged at 300×g for 5 min at RT immediately prior to microscope acquisition. The cells were imaged on an inverted Nikon wide-field microscope system at 37 °C and CO2 (5%). Four fields of view were acquired per well every 15 mins for 10–15 h using a 40x objective. NETs were differentiated from necrotic cells by the size of the sytox signal using FIJI[86]. […] [85]. Area measurements were distributed into bins of increasing area sizes and plotted as a percentage of the total number of Sytox-green positive (dead) cells.
smiles,measurement,value
N=C(N)NCCC[C@@H]1NC(=O)[C@H](CC(=O)O)NC(=O)[C@@H](Cc2ccc(O)cc2)NC(=O)CSC[C@@H](C(=O)NCC(N)=O)NC(=O)[C@H](Cc2ccc(O)cc2)NC(=O)[C@H](CCCCN)NC(=O)[C@@H]2CCCN2C(=O)[C@H](Cc2c[nH]cn2)NC(=O)[C@H](CCCNC(=N)N)NC(=O)[C@H](Cc2ccc(O)cc2)NC(=O)[C@H](Cc2c[nH]cn2)NC(=O)[C@H](Cc2c[nH]cn2)NC1=O [PADI4_3i] ({CH2CO}-[dY]DRHHYRHPKYCG-NH2; thioether N-12),NETosis induced by calcium ionophore,neither response was affected
